The source of these data is US4451575A, “Activators for Ziegler type polymerization catalysts using bis(trichloromethyl) sulfone” (Uniroyal, Inc., priority 1982, dated 1984).

One data set is described as follows: Acute Oral LD50. To be noted: rat, in vivo.
A further data set concerns rabbit skin. In words: Primary Skin Irritation.
Another data set deals with eye. Description: Eye irritation.

For `CCCCOC(=O)C1(Cl)OC(Cl)C(Cl)C1Cl` (stereo not drawn) [UKU, Butyl 2,3,4,5-Tetrachloro-2,3,4,5, Tetrahydro-2-Furoate], in “Ames Test (mutagenicity)”, the “Ames Test, mutagenicity” value is recorded as “negative”.

`O=C(OCC1(Cl)OC(Cl)C(Cl)C1Cl)C1(Cl)OC(Cl)C(Cl)C1Cl` (stereo not drawn) [ZXU, Tetrachlorotetrahydrofurfuryl Tetrachlorotetrahydrofuroate] registered a 50% lethal dose (LD50) in the data set “Acute Oral LD50” of 1100 ± 150 mg/kg. For the same compound, the “Primary Skin Irritation” value in the data set on rabbit skin is “Moderate irritant”. For the same compound, in “Ames Test (mutagenicity)”, the “Ames Test, mutagenicity” value was “negative”. Besides, the Eye irritation entry in the data set on eye (left in without washout) was “severe irritant”; in the data set on eye (material washed out 4 seconds after introduction), “Mild irritant”.

As usually defined, the LD50 is the dose at which mortality reaches 50%.
